How the values were obtained:
[1] = target: T1, alpha2B adrenergic receptors (Homo sapiens, UniProt P18089); assay: Receptor Selection and Amplification Technology (RSAT) assay, alpha2B; assay type: cell-based; conditions: for EC50: NA = not active at concentrations less than 10 micromolar, read-out: Alpha 2B EC50; for Alpha 2B intrinsic activity: fraction of maximal effect of standard full agonist brimonidine (UK14304)
T1 construct: expressed in transfected cells; host or cells: NIH-3T3
T1 sequence (P18089 1-450): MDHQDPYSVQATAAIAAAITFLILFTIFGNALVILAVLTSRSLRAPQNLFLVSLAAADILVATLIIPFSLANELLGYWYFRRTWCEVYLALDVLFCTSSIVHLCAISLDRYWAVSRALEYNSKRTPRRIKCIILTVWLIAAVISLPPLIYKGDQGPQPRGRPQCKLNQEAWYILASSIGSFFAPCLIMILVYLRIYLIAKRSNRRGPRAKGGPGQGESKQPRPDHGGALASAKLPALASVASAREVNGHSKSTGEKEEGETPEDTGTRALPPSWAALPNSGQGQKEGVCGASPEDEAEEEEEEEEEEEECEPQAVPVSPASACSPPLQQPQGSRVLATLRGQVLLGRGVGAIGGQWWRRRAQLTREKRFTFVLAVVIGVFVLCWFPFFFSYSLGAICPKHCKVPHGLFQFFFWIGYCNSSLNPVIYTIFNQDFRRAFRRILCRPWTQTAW
Excerpt: (§1) The imidazole-2-thione compounds of the invention are agonists of alpha2 adrenergic receptors, particularly they tend to be specific or selective agonists of alpha2B and/or to a lesser extent alpha2C adrenergic receptors, in preference over alpha2A adrenergic receptors. […] Al., 1995, Pharmacol. Toxicol. 76, pp. 308-311 (incorporated herein by reference) and is also described below. Another reference pertinent to this assay is Conklin et al. (1993) Nature 363:274-6, also incorporated herein by reference.
(§2) Receptor Selection and Amplification Technology (RSAT) Assay
(§3) The RSAT assay measures a receptor-mediated loss of contact inhibition that results in selective proliferation of receptor-containing cells in a mixed population of confluent cells. The increase in cell number is assessed with an appropriate transfected marker gene such as β-galactosidase, the activity of which can be easily measured in a 96-well format. Receptors that activate the G protein, Gq, elicit this response. Alpha2 receptors, which normally couple to Gi, activate the RSAT response when coexpressed with a hybrid Gq protein that has a Gi receptor recognition domain, called Gq/i5.
(§4) NIH-3T3 cells are plated at a density of 2×10^6 cells in 15 cm dishes and maintained in Dulbecco's modified Eagle's medium supplemented with 10% calf serum. One day later, cells are cotransfected by calcium phosphate precipitation with mammalian expression plasmids encoding p-SV-β-galactosidase (5-10 μg), receptor (1-2 μg) and G protein (1-2 μg). 40 μg salmon sperm DNA may also be included in the transfection mixture. Fresh media is added on the following day and 1-2 days later, cells are harvested and frozen in 50 assay aliquots. Cells are thawed and 100 μl added to 100 μl aliquots of various concentrations of drugs in triplicate in 96-well dishes. Incubations continue 72-96 hr at 37 EC. After washing with phosphate-buffered saline, β-galactosidase enzyme activity is determined by adding 200 μl of the chromogenic substrate (consisting of 3.5 mM o-nitrophenyl-β-D-galactopyranoside and 0.5% nonidet P-40 in phosphate buffered saline), incubating overnight at 30 EC and measuring optical density at 420 nm. The absorbance is a measure of enzyme activity, which depends on cell number and reflects a receptor-mediated cell proliferation. The EC50 and maximal effect of each drug at each alpha2 receptor is determined. The efficacy or intrinsic activity is calculated as a ratio of the maximal effect of the drug to the maximal effect of a standard full agonist for each receptor subtype. Brimonidine, also called UK14304, the chemical structure of which is shown below, is used as the standard agonist for the alpha2A, alpha2B and alpha2C receptors.
(§5) The results of the RSAT assay with several exemplary compounds of the invention are disclosed in Table 1 above together with the chemical formulas of these examplary compounds. […] NA stands for “not active” at concentrations less than 10 micromolar. As is known EC50 is the concentration at which half of a given compound's maximal activity is observed.

[2] = target: T2, alpha2C adrenergic receptors (Homo sapiens, UniProt P18825); assay: Receptor Selection and Amplification Technology (RSAT) assay, alpha2C; assay type: cell-based; conditions: for EC50: NA = not active at concentrations less than 10 micromolar, read-out: Alpha 2C EC50; for Alpha 2C intrinsic activity: fraction of maximal effect of standard full agonist brimonidine (UK14304)
T2 construct: expressed in transfected cells; host or cells: NIH-3T3
T2 sequence (P18825 1-462): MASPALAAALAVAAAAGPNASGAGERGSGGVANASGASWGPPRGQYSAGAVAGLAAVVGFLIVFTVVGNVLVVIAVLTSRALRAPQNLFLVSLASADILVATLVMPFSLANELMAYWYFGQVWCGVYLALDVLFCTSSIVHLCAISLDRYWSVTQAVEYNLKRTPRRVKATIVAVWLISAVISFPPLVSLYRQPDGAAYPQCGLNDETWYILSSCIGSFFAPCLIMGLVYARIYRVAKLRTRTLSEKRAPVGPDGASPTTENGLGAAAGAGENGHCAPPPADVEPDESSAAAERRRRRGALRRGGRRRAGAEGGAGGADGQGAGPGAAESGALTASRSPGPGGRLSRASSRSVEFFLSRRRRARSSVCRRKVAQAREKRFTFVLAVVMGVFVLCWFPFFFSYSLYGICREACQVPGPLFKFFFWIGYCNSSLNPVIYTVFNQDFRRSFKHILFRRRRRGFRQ
Excerpt: as §1, §2, §3, §4, §5

| EC50 [1] | Alpha 2B intrinsic activity [1] | EC50 [2] | Alpha 2C intrinsic activity [2] | SMILES |
| --- | --- | --- | --- | --- |
| 0.081 µM | 0.81 |  |  | CC1=CC(Cc2c[nH]c(=S)[nH]2)CC1 (centres unmarked) |
| 0.086 µM | 0.78 |  |  | S=c1[nH]cc(CC2CCC3=C(CCCC3)C2)[nH]1 (centres unmarked) |
| 0.106 µM | 0.97 |  |  | O=C1c2ccsc2CCC1Cc1c[nH]c(=S)[nH]1 (centres unmarked) |
| 0.815 µM | 0.83 |  |  | O=C1C2=C(CCCC2)CCC1Cc1c[nH]c(=S)[nH]1 (centres unmarked) |
| 0.018 µM | 1.0 |  |  | O=C1c2ccccc2CCC1Cc1c[nH]c(=S)[nH]1 (centres unmarked) |
| 1.15 µM | 0.37 |  |  | S=c1[nH]cc(CC2CCc3cc(Cl)ccc32)[nH]1 (centres unmarked) |
| 0.006 µM | 1.08 |  |  | CCC1=C(C)CCC(Cc2c[nH]c(=S)[nH]2)C1 (centres unmarked) |
| 0.017 µM | 0.65 |  |  | S=c1[nH]cc(CC2CCc3ccccc3C2)[nH]1 (centres unmarked) |
| 0.85 µM | 0.71 |  |  | O=C1c2ccccc2CC1Cc1c[nH]c(=S)[nH]1 (centres unmarked) |
| 0.025 µM | 0.61 |  |  | CC1=C(C)CC(Cc2c[nH]c(=S)[nH]2)CC1 (centres unmarked) |
| 1.01 µM | 0.48 |  |  | O=C1c2ccc(O)cc2CCC1Cc1c[nH]c(=S)[nH]1 (centres unmarked) |
| 0.451 µM | 0.68 |  |  | CCC1=CCC(Cc2c[nH]c(=S)[nH]2)CC1 (centres unmarked) |
| 0.265 µM | 0.60 |  |  | C#CC1=CCC(Cc2c[nH]c(=S)[nH]2)CC1 (centres unmarked) |
| 0.061 µM | 0.72 |  |  | CC1=CCC(Cc2c[nH]c(=S)[nH]2)CC1 (centres unmarked) |
| 0.041 µM | 0.83 |  |  | O=C1c2ccccc2CC[C@H]1Cc1c[nH]c(=S)[nH]1 |
| 0.092 µM | 0.79 |  |  | O=C1c2ccccc2CC[C@@H]1Cc1c[nH]c(=S)[nH]1 |
| 0.017 µM | 0.82 |  |  | S=c1[nH]cc(C2CCc3ccccc3CC2)[nH]1 |
| 0.286 µM | 1.16 |  |  | S=c1[nH]cc(CC2CCSc3ccccc32)[nH]1 (centres unmarked) |
| 0.755 µM | 0.98 | 2.26 µM | 0.88 | O=C1C2=C(CCC1Cc1c[nH]c(=S)[nH]1)NCCC2 (centres unmarked) |
| 0.72 µM | 0.6 |  |  | O=C1c2cccnc2CCC1Cc1c[nH]c(=S)[nH]1 (centres unmarked) |
| 0.395 µM | 0.41 |  |  | S=c1[nH]cc(C[C@H]2CCc3ccccc3C2)[nH]1 |
| 0.0137 µM | 0.93 |  |  | S=c1[nH]cc(C[C@@H]2CCc3ccccc3C2)[nH]1 |
| 0.06 µM | 0.73 |  |  | S=c1[nH]cc(C[C@@H]2CCC3=C(CCCC3)C2)[nH]1 |
| 0.3 µM | 0.76 |  |  | O=C1c2ccc(F)cc2CCC1Cc1c[nH]c(=S)[nH]1 (centres unmarked) |
| 0.115 µM | 0.99 |  |  | O=C1c2c(Cl)cccc2CCC1Cc1c[nH]c(=S)[nH]1 (centres unmarked) |
| 0.11 µM | 0.65 |  |  | S=c1[nH]cc(CC2Cc3ccccc3C2)[nH]1 |
| 0.006 µM | 0.98 |  |  | S=c1[nH]cc(C2Cc3ccccc3C2)[nH]1 |
| 0.034 µM | 1.03 | 0.423 µM | 0.52 | S=c1[nH]cc(C2CCc3ccccc3C2)[nH]1 (centres unmarked) |

| EC50 [1] | Alpha 2B intrinsic activity [1] | EC50 [2] | Alpha 2C intrinsic activity [2] | SMILES |
| --- | --- | --- | --- | --- |
| 0.03 µM | 0.75 |  |  | Fc1ccc2c(c1)CC(c1c[nH]c(=S)[nH]1)C2 (centres unmarked) |
| 0.003 µM | 0.99 | 0.013 µM | 0.62 | Cc1cccc2c1CC(c1c[nH]c(=S)[nH]1)C2 (centres unmarked) |
| 0.027 µM | 1.12 | 0.374 µM | 0.45 | Cc1ccc2c(c1)CC(c1c[nH]c(=S)[nH]1)C2 (centres unmarked) |
| 0.028 µM | 0.87 | 0.321 µM | 0.38 | S=c1[nH]cc(C2Cc3ccc(Br)cc3C2)[nH]1 (centres unmarked) |
| 0.005 µM | 1.07 | 0.106 µM | 0.87 | S=c1[nH]cc(C2Cc3cccc(Br)c3C2)[nH]1 (centres unmarked) |
| 0.0575 µM | 0.85 |  |  | S=c1[nH]cc(C2Cc3ccc(Cl)cc3C2)[nH]1 (centres unmarked) |
| 0.005 µM | 1.03 |  |  | C[C@@H]1c2ccccc2C[C@H]1c1c[nH]c(=S)[nH]1 |
| 0.0345 µM | 0.93 |  |  | Fc1cccc2c1CCC2Cc1c[nH]c(=S)[nH]1 (centres unmarked) |
| 0.834 µM | 0.54 |  |  | Fc1ccc2c(c1F)CCC2Cc1c[nH]c(=S)[nH]1 (centres unmarked) |
| 0.105 µM | 0.64 |  |  | Cc1ccc(C)c2c1CCC2Cc1c[nH]c(=S)[nH]1 (centres unmarked) |
| 0.074 µM | 0.78 |  |  | S=c1[nH]cc(CC2CCCc3cccc(Cl)c32)[nH]1 (centres unmarked) |
| 1.59 µM | 0.74 |  |  | S=c1[nH]cc(CC2CCc3ncccc3C2)[nH]1 (centres unmarked) |
| 0.0065 µM | 0.81 |  |  | Fc1cc(F)c2c(c1)CC(c1c[nH]c(=S)[nH]1)C2 (centres unmarked) |
| 0.022 µM | 1.02 |  |  | COc1cc(F)c2c(c1)CC(c1c[nH]c(=S)[nH]1)C2 (centres unmarked) |
| 0.0313 µM | 0.91 |  |  | S=c1[nH]cc(CC2CCc3c(Cl)cccc32)[nH]1 (centres unmarked) |
| 0.16 µM | 0.94 |  |  | N#C/C=C1\c2ccccc2CCC1Cc1c[nH]c(=S)[nH]1 (centres unmarked) |
| 0.99 µM | 0.5 |  |  | N#C/C=C1/c2ccccc2CCC1Cc1c[nH]c(=S)[nH]1 (centres unmarked) |
| 0.469 µM | 0.87 |  |  | CC1=CCC(Cc2c[nH]c(=S)[nH]2)OC1 (centres unmarked) |
|  |  | 0.214 µM | 0.68 | S=c1[nH]cc(CC2CCC=C2c2ccccc2)[nH]1 (centres unmarked) |
|  |  | 0.191 µM | 0.45 | Fc1cccc(C2=CCCC2Cc2c[nH]c(=S)[nH]2)c1 (centres unmarked) |
|  |  | 0.715 µM | 0.61 | Fc1ccc(C2=CCC[C@H]2Cc2c[nH]c(=S)[nH]2)cc1 |
| 1.47 µM | 0.66 |  |  | Fc1cccc(C2=CCC[C@@H]2Cc2c[nH]c(=S)[nH]2)c1 |
|  |  | 0.241 µM | 0.66 | Fc1cc(F)cc(C2=CCCC2Cc2c[nH]c(=S)[nH]2)c1 (centres unmarked) |
|  |  | 0.994 µM | 0.53 | Fc1ccccc1C1=CCCC1Cc1c[nH]c(=S)[nH]1 (centres unmarked) |
|  |  | 0.43 µM | 0.38 | Fc1ccc(F)c(C2=CCCC2Cc2c[nH]c(=S)[nH]2)c1 (centres unmarked) |
| 0.269 µM | 0.79 |  |  | CC(C)C1=C(c2ccc(F)cc2)C(Cc2c[nH]c(=S)[nH]2)CC1 (centres unmarked) |
| 0.014 µM | 0.74 |  |  | S=c1[nH]cc(CC2CCc3sccc3C2)[nH]1 (centres unmarked) [drawing 22] |

Source: patent US7323485B2, “4-(substituted cycloalkylmethyl) imidazole-2-thiones, 4-(substituted cycloalkenylmethyl) imidazole-2-thiones, 4-(substituted cycloalkylmethyl) imidazol-2-ones and 4-(substituted cycloalkenylmethyl) imidazol-2-ones and related compounds” (Allergan, Inc., priority 2002, dated 2008)
